# Experimental data from US12259539B2, “Optical microscope” (SMI DRUG DISCOVERY LIMITED, priority 2019, dated 2025).
# Biological target: T1, P2X1 receptor (Homo sapiens, UniProt P51575)
# T1 construct: made in house
# T1 sequence (P51575 1-399): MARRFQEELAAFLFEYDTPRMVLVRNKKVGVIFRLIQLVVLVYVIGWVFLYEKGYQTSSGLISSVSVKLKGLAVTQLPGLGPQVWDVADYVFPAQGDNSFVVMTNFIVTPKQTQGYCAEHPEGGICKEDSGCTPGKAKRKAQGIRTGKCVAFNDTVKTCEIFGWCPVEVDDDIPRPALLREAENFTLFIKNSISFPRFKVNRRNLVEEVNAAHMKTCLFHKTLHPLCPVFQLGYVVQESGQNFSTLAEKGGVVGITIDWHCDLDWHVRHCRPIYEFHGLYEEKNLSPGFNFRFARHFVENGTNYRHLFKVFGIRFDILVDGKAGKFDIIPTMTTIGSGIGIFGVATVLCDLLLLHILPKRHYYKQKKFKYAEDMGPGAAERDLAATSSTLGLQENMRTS
# Assay: Single molecule stochastic binding of ATP* to purified P2X1 reconstituted in lipid bilayers
# Details: corrected for photophysical blinking and photochemical bleach; compared with bulk measurements
# Source text: Plasmids: A FLAG-tagged human P2X1 subunit construct was generated by fusion PCR, and cloned together with an IRES-IFP1.4 fusion PCR product as a three-point ligation into the Mlul/Spel digested pLV-T backbone (see Shu, X.; Royant, A.; Lin, M. Z.; Aguilera, T. A.; Lev-Ram, V.; Steinbach, P. A.; Tsien, R. Y. Science 2009, 324, 804; and Marquis, J.; Kampfer, S. S.; Angehrn, L.; Schumperli, D. Gene therapy 2009, 16, 70.)
# Protein Purification: HEK 293T cells stably expressing the FLAG-P2X1 receptor were grown as monolayers in T300 plates. At a density of 80%, cells were washed once with phosphate buffered saline (PBS (mM); 0.1 NaCl, 2.0 Na2HPO4, 0.54 KCl, 0.4 KH2PO4, pH 7.4), mechanically detached into PBS, collected by centrifugation at 500 g for 5 min, snap frozen in liquid N2 and stored at −70° C. until needed. After defrosting, cells were diluted with 2 mL Tris-EDTA (50 mM Tris-HCl, 0.5 mM EDTA, pH 7.5) containing Halt Protease Inhibitor (Pierce, Thermo Scientific, IL, USA) and homogenized with a 5 mL cell-douncer, followed by trituration through 21-gauge and 27-gauge needles. […]
substance,measurement,value
"2′/3′-O-(2-Aminoethyl-carbamoyl)-Adenosine-5′-triphosphate, labelled with ATTO-700 [ATP*]",binding coefficients from single receptor binding data,statistically identical to overall bulk measurements
